Measured values as given in ChEMBL document CHEMBL3991601, “The target landscape of clinical kinase drugs” (Science, 2017).
Calls of active or inactive are those of the source. Rule as the data show it, for most assays here: actives have a measured Kd and inactives only a lower limit.

Key:
[1] = biological target: Ephrin type-A receptor 2 (Homo sapiens, UniProt P29317)
[2] = biological target: Proto-oncogene tyrosine-protein kinase Src (Homo sapiens, UniProt P12931)
[3] = biological target: Serine/threonine-protein kinase MRCK alpha (Homo sapiens, UniProt Q5VT25)
Chain of Serine/threonine-protein kinase MRCK alpha (Q5VT25 whole entry): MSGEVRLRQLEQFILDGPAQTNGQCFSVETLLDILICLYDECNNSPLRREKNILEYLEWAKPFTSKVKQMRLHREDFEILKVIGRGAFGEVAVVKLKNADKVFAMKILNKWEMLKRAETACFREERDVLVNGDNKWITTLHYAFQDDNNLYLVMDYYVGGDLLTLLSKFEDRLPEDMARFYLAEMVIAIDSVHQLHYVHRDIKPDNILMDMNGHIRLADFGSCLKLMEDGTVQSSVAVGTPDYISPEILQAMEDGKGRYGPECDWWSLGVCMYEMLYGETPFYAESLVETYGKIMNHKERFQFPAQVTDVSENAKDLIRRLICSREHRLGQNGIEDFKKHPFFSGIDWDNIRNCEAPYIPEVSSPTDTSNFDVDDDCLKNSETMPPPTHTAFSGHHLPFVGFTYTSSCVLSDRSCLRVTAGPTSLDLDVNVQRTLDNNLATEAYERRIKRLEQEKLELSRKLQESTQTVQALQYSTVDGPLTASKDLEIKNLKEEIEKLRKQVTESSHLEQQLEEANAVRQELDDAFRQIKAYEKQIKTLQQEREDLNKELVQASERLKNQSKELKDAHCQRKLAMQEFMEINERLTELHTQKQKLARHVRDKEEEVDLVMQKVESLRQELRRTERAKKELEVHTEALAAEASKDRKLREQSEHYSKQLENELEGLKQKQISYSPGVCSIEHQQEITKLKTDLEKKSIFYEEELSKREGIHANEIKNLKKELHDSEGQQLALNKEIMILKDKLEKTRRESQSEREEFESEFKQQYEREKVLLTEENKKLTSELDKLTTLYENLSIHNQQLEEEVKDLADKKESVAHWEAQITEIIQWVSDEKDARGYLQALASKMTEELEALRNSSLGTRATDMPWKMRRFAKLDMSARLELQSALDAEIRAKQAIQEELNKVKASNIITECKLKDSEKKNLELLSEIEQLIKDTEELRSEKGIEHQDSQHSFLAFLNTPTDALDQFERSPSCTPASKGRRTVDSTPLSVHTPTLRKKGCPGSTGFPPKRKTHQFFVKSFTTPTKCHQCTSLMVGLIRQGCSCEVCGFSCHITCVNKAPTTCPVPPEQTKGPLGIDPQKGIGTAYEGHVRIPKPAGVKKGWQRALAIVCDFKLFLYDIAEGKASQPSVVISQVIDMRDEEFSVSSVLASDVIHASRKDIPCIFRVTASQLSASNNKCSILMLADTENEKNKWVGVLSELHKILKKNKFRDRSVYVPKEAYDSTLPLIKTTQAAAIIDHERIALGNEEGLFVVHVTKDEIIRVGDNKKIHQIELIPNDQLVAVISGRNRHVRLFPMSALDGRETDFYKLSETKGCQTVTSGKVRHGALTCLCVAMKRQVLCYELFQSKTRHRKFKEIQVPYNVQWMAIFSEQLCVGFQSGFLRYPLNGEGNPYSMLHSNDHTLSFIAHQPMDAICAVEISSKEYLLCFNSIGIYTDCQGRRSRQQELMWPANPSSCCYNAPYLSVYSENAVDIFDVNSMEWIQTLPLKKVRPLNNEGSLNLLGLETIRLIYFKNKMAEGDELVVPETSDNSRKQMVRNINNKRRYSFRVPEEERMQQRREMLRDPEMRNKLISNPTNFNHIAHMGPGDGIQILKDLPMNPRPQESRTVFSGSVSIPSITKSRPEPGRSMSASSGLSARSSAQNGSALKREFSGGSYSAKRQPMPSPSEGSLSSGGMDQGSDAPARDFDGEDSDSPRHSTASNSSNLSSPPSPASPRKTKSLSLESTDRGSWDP

[4] = biological target: Insulin receptor (Homo sapiens, UniProt P06213)
Chain of Insulin receptor (P06213 28-758 limits assumed): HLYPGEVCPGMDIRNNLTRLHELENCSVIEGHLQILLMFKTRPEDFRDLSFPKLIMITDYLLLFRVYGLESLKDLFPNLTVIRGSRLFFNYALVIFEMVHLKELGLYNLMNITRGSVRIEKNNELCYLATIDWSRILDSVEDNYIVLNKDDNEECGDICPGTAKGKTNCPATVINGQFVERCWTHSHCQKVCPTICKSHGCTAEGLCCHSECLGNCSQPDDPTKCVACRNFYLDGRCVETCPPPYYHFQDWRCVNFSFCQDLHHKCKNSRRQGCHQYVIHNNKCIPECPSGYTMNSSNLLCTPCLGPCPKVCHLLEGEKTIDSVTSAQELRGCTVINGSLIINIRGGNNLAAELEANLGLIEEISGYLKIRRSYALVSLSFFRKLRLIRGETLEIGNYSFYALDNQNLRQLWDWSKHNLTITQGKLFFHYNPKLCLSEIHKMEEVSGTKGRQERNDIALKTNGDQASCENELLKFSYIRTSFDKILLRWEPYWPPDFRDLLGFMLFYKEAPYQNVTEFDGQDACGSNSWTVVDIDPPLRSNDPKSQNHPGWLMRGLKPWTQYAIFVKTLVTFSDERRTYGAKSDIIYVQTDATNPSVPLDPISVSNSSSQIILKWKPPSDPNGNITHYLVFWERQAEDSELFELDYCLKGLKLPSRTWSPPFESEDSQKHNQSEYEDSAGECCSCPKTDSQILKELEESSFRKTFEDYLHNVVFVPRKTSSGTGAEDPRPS
Chain of Insulin receptor (P06213 763-1382 limits assumed): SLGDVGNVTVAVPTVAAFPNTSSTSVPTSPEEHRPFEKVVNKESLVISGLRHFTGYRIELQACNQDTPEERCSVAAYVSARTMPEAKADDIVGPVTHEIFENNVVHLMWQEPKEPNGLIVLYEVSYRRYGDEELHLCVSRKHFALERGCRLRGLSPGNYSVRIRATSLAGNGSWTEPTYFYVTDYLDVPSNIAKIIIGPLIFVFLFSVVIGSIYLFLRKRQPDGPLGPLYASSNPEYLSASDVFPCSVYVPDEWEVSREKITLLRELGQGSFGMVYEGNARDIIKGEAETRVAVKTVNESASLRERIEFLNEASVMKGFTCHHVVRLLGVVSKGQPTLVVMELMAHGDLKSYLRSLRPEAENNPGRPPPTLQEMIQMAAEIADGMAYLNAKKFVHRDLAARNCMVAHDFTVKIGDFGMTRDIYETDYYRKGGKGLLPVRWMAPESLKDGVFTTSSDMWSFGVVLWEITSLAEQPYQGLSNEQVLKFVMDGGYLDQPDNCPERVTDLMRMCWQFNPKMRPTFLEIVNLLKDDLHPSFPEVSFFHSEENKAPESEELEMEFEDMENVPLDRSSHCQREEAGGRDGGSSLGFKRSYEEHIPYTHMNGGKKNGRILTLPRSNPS

[5] = biological target: Eukaryotic translation initiation factor 2-alpha kinase 1 (Homo sapiens, UniProt Q9BQI3)
Chain of Eukaryotic translation initiation factor 2-alpha kinase 1 (Q9BQI3 whole entry, the tested form may be a part): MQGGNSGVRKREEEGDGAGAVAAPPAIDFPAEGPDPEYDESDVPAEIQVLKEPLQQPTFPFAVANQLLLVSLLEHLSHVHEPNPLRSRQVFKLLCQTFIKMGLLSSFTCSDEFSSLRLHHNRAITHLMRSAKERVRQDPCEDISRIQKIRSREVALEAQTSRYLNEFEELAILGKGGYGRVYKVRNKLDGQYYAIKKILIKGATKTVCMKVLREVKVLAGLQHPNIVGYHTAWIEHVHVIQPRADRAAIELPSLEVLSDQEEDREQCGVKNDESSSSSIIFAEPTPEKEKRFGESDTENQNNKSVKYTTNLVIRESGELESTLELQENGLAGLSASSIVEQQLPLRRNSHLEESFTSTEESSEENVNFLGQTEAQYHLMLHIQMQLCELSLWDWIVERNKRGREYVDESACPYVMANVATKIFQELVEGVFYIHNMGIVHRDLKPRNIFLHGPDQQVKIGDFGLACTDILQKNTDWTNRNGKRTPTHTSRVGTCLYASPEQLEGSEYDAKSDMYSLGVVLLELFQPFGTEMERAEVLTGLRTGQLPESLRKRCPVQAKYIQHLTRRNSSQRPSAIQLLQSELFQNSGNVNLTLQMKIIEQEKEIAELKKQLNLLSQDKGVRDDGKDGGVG

[6] = biological target: T1, Discoidin domain-containing receptor 2 (Homo sapiens, UniProt Q16832)
T1 sequence (Q16832 whole entry): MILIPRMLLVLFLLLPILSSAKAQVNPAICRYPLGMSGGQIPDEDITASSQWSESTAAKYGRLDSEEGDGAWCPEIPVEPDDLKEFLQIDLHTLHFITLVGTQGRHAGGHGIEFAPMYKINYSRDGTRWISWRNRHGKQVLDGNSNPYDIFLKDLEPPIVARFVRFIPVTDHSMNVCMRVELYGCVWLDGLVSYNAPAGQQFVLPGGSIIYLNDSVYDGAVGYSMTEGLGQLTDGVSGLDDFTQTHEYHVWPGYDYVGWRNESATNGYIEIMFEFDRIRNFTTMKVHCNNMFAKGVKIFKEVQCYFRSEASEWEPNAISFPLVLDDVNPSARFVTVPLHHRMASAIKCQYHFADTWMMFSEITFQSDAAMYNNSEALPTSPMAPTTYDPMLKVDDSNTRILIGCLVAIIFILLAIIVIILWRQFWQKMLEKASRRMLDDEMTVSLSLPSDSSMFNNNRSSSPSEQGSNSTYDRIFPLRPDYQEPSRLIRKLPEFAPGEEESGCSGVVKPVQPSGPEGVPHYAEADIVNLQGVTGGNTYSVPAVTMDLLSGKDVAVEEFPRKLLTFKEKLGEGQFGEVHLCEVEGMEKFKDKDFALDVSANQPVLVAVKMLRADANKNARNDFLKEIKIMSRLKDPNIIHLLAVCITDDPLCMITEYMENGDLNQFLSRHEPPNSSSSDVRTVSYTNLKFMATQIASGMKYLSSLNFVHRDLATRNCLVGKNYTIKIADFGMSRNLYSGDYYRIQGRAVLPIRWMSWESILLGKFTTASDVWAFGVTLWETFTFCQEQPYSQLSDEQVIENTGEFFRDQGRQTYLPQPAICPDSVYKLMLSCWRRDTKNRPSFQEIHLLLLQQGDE

[7] = biological target: T2, ATP-dependent RNA helicase DDX42 (Homo sapiens, UniProt Q86XP3)
T2 sequence (Q86XP3 whole entry): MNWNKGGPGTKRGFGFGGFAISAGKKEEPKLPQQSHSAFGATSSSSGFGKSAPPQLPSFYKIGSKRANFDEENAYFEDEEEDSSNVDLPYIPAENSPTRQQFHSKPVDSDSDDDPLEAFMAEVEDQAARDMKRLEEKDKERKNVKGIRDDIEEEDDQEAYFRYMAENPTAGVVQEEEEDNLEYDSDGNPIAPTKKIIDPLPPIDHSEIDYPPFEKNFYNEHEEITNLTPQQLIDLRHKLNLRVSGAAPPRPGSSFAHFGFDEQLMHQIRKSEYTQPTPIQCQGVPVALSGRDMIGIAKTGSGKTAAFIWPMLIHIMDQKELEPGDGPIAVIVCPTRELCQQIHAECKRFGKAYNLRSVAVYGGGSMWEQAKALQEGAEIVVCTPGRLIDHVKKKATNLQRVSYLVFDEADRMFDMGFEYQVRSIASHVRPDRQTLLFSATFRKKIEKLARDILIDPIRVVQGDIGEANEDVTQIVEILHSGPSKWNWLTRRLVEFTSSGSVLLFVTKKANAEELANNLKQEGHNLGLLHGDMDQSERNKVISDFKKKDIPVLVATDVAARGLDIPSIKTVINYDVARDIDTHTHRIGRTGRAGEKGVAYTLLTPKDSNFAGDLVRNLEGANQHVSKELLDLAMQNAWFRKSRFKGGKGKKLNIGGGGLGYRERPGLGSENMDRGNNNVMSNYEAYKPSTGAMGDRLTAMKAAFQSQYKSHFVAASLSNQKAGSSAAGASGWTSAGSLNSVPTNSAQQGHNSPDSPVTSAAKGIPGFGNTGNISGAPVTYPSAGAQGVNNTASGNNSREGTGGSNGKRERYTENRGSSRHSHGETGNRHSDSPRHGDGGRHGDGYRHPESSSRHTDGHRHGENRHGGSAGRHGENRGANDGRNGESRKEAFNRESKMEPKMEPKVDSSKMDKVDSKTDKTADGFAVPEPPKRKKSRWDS

[8] = biological target: T3, Activin receptor type-1B (Homo sapiens, UniProt P36896)
T3 sequence (P36896 whole entry): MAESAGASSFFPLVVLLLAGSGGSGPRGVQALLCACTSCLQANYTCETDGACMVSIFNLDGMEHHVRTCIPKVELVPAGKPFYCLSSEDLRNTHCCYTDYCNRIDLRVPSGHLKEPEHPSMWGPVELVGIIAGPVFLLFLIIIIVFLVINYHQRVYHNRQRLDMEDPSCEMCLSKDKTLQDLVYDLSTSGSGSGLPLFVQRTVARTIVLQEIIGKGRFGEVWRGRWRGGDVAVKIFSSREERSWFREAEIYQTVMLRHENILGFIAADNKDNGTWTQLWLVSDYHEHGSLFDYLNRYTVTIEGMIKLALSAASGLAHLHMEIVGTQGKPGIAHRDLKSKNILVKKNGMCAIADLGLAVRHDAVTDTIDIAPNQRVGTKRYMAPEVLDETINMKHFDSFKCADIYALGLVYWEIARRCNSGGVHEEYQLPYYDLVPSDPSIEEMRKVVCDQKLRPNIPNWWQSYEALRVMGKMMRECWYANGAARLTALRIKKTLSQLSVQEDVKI

[9] = biological target: Serine/threonine-protein kinase pim-1 (Homo sapiens, UniProt P11309)
Chain of Serine/threonine-protein kinase pim-1 (P11309 whole entry): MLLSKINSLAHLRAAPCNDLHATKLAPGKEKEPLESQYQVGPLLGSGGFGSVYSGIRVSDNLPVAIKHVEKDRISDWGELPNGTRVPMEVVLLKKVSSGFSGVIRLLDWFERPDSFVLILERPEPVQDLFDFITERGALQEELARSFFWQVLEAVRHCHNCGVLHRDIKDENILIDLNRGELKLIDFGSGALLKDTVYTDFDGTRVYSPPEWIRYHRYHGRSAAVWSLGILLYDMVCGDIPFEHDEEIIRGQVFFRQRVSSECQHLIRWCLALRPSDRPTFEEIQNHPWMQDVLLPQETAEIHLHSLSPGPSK

[10] = biological target: Rho-associated protein kinase 2 (Homo sapiens, UniProt O75116)
Also: in the data inactive means no Kd found up to 30 µM.

Chain of Proto-oncogene tyrosine-protein kinase Src (P12931 2-536 limits assumed): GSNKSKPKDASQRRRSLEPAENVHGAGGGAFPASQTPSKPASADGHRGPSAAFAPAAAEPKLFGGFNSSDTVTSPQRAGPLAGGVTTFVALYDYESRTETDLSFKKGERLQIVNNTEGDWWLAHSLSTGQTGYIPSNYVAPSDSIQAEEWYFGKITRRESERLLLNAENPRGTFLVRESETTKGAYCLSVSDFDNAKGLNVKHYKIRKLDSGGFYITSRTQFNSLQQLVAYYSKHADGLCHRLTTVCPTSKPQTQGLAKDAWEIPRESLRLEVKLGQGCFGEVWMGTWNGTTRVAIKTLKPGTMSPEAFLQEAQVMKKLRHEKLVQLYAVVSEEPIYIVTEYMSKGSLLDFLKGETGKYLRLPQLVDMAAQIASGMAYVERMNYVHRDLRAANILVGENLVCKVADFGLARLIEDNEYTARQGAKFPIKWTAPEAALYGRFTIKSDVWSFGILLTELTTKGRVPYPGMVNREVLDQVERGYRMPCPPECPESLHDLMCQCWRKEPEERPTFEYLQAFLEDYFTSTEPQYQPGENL

SMILES | Kd [1] | Kd [2] | Kd [3] | Kd [4] | Kd [7] | Kd [5] | Kd [6] | Kd [8] | Kd [9] | Kd [10]
CCN(CCCOc1ccc2c(Nc3cc(CC(=O)Nc4cccc(F)c4)n[nH]3)ncnc2c1)CCOP(=O)(O)O [BARASERTIB] | > 30 µM (inactive) | > 30 µM (inactive) | > 30 µM (inactive) | > 30 µM (inactive) | > 30 µM (inactive) | > 30 µM (inactive) | > 30 µM (inactive) | > 30 µM (inactive) | – | –
CCN1CCN(Cc2ccc(Nc3ncc(F)c(-c4cc(F)c5nc(C)n(C(C)C)c5c4)n3)nc2)CC1 [ABEMACICLIB] | > 30 µM (inactive) | > 30 µM (inactive) | > 30 µM (inactive) | > 30 µM (inactive) | > 30 µM (inactive) | 4.84 µM (active) | > 30 µM (inactive) | > 30 µM (inactive) | – | > 30 µM (inactive)
COc1cc(F)c(F)c(Nc2ccc(I)cc2F)c1NS(=O)(=O)C1(C[C@H](O)CO)CC1 [REFAMETINIB] | > 30 µM (inactive) | > 30 µM (inactive) | > 30 µM (inactive) | > 30 µM (inactive) | – | > 30 µM (inactive) | > 30 µM (inactive) | > 30 µM (inactive) | > 30 µM (inactive) | > 30 µM (inactive)
CC(C)CC(=O)Nc1[nH]nc2c1CN(C(=O)C1CCN(C)CC1)C2(C)C [PHA-793887] | > 30 µM (inactive) | > 30 µM (inactive) | > 30 µM (inactive) | – | > 30 µM (inactive) | > 30 µM (inactive) | > 30 µM (inactive) | > 30 µM (inactive) | > 30 µM (inactive) | > 30 µM (inactive)
C=CCn1c(=O)c2cnc(Nc3ccc(N4CCN(C)CC4)cc3)nc2n1-c1cccc(C(C)(C)O)n1 [ADAVOSERTIB] | > 30 µM (inactive) | > 30 µM (inactive) | > 30 µM (inactive) | > 30 µM (inactive) | > 30 µM (inactive) | > 30 µM (inactive) | > 30 µM (inactive) | > 30 µM (inactive) | – | > 30 µM (inactive)
C[C@]1(O)C[C@@H](c2nc(-c3ccc4ccc(-c5ccccc5)nc4c3)c3c(N)nccn32)C1 [LINSITINIB] | – | – | – | – | > 30 µM (inactive) | > 30 µM (inactive) | > 30 µM (inactive) | > 30 µM (inactive) | – | –
O=S(=O)(c1cccc2cnccc12)N1CCCNCC1 [FASUDIL] | – | – | – | – | > 30 µM (inactive) | > 30 µM (inactive) | > 30 µM (inactive) | > 30 µM (inactive) | – | 0.943 µM (active)
CN(c1ncccc1CNc1nc(Nc2ccc3c(c2)CC(=O)N3)ncc1C(F)(F)F)S(C)(=O)=O [PF-00562271] | – | – | – | – | > 30 µM (inactive) | > 30 µM (inactive) | > 30 µM (inactive) | > 30 µM (inactive) | – | –
CCc1nc(C(N)=O)c(Nc2ccc(N3CCC(N4CCN(C)CC4)CC3)c(OC)c2)nc1NC1CCOCC1 [GILTERITINIB] | > 30 µM (inactive) | > 30 µM (inactive) | > 30 µM (inactive) | – | – | – | > 30 µM (inactive) | > 30 µM (inactive) | > 30 µM (inactive) | > 30 µM (inactive)
C[C@@]1(C(=O)Nc2ccc(F)nc2)CCCN1c1nc(Nc2cc(C3CC3)n[nH]2)c2cccn2n1 [BMS-754807] | – | – | – | – | > 30 µM (inactive) | – | – | – | – | –
CN(C)C/C=C/C(=O)Nc1cc2c(Nc3ccc(F)c(Cl)c3)ncnc2cc1O[C@H]1CCOC1 [AFATINIB] | – | – | – | – | > 30 µM (inactive) | – | – | – | – | –
CN1CCN(c2nc(C3=C(c4c[nH]c5ccccc45)C(=O)NC3=O)c3ccccc3n2)CC1 [SOTRASTAURIN] | > 30 µM (inactive) | > 30 µM (inactive) | > 30 µM (inactive) | – | – | > 30 µM (inactive) | > 30 µM (inactive) | > 30 µM (inactive) | 8.84 µM | > 30 µM (inactive)

Now from value to molecule, other results behind:

Kd [1] | Kd [2] | Kd [3] | Kd [4] | Kd [7] | SMILES | Kd [5] | Kd [6] | Kd [8] | Kd [9] | Kd [10]
> 30 µM (inactive) | > 30 µM (inactive) | > 30 µM (inactive) | > 30 µM (inactive) | – | O=C(Nc1ccc(OC(F)(F)F)cc1)c1sccc1NCc1ccnc2ccccc12 [OSI-930] | > 30 µM (inactive) | > 30 µM (inactive) | > 30 µM (inactive) | > 30 µM (inactive) | > 30 µM (inactive)
> 30 µM (inactive) | > 30 µM (inactive) | > 30 µM (inactive) | > 30 µM (inactive) | – | COc1cc(Nc2ncc(F)c(Nc3ccc4c(n3)N(COP(=O)(O)O)C(=O)C(C)(C)O4)n2)cc(OC)c1OC [FOSTAMATINIB] | > 30 µM (inactive) | > 30 µM (inactive) | > 30 µM (inactive) | > 30 µM (inactive) | > 30 µM (inactive)
– | > 30 µM (inactive) | – | – | > 30 µM (inactive) | COc1cc2c(Oc3ccc4[nH]c(C)cc4c3F)ncnc2cc1OCCCN1CCCC1 [CEDIRANIB] | – | – | – | – | –
– | – | – | – | > 30 µM (inactive) | COc1cc2c(N3CCN(C(=O)Nc4ccc(OC(C)C)cc4)CC3)ncnc2cc1OCCCN1CCCCC1 [TANDUTINIB] | – | – | – | – | –
> 30 µM (inactive) | > 30 µM (inactive) | > 30 µM (inactive) | > 30 µM (inactive) | – | O=C(O)c1ccc2c(c1)nc(Nc1cccc(Cl)c1)c1ccncc12 [SILMITASERTIB] | 1.66 µM (active) | > 30 µM (inactive) | > 30 µM (inactive) | – | > 30 µM (inactive)
– | – | – | – | > 30 µM (inactive) | CC1(C)CNc2cc(NC(=O)c3cccnc3NCc3ccncc3)ccc21 [MOTESANIB] | – | – | – | – | –
– | – | – | – | > 30 µM (inactive) | Cn1cnc2c(F)c(Nc3ccc(Br)cc3Cl)c(C(=O)NOCCO)cc21 [SELUMETINIB] | – | – | – | – | –
> 30 µM (inactive) | > 30 µM (inactive) | > 30 µM (inactive) | – | > 30 µM (inactive) | CCOc1ccn(-c2ccc(F)cc2)c(=O)c1C(=O)Nc1ccc(Oc2ccnc(N)c2Cl)c(F)c1 [BMS-777607] | > 30 µM (inactive) | 0.065 µM (active) | > 30 µM (inactive) | > 30 µM (inactive) | > 30 µM (inactive)
> 30 µM (inactive) | > 30 µM (inactive) | > 30 µM (inactive) | > 30 µM (inactive) | > 30 µM (inactive) | Cn1c(=O)n(-c2ccc(C(C)(C)C#N)cc2)c2c3cc(-c4cnc5ccccc5c4)ccc3ncc21 [DACTOLISIB] | > 30 µM (inactive) | – | > 30 µM (inactive) | – | > 30 µM (inactive)
